Source: patent US20250051727A1, “CARDIAC ORGANOID WITH INNER PART HAVING CAVITIES AND MULTIPLE LAYERS” (MEDIZINISCHE HOCHSCHULE HANNOVER, priority 2018, published 2025)

Test system: cardiac organoids (from hESC3 NKX2.5-eGFP)
Format: cell-based, human
Experimental: The process was performed for steps a) to n) as described with reference to FIG. 1. Incubation under cell culture conditions was in a 5% CO2 atmosphere at 37° C., using ultra-low attachment 96 well microtiter plates, Nunclon Sphera 96U-well plate available from Thermo Fisher Scientific, as the first vessels. The PSC were the human embryonic stem cell line hESC3 NKX2.5-eGFP. These exemplary PSC were genetically manipulated to express enhanced green fluorescent protein (eGFP) as a reporter under the control of the early cardiomyocyte-specific marker NKX2.5 to indicate early cardiomyocyte differentiation.
These PSC were cultivated on cell culture flasks (preferably Geltrex-coated) in E8 medium and detached from the flasks to provide the PSC in suspension. In step a), 5000 PSC suspended in 100 μL of the first medium, which was E8 medium (DMEM/F12, L-ascorbic acid-2-phosphate magnesium (64 mg/L), sodium selenium (14 μg/L), FGF2 (100 μg/L), insulin (19.4 mg/L), NaHCO3 (543 mg/L) and transferrin (10.7 mg/L), TGFβ1 (2 μg/L) or NODAL (100 μg/L), osmolarity adjusted to 340 mOsm at pH7.4) supplemented with 10 μM ROCK inhibitor (Y-27632, catalogue No. 72302, Stemcell Technologies)), were carefully dispensed into wells of the microtiter plate. Centrifugation of step b) was twice for 3 min at 300× g with the centrifuge cooled to 4° C. The centrifuged first vessels each contained one agglomerate on the U-shaped bottom and were carefully placed into a cell culture incubator in order to avoid disturbance of the cells localized at the U-shaped bottom. Incubation of step c) without agitation was for 24 h, resulting in the formation of an aggregate of the cells. For embedding in Matrigel (thawed on ice, 9.7 to 10.1 mg/mL protein content) as the exemplary hydrogel, 20 μL Matrigel were positioned in each well of a microtiter plate, the wells of which forming second vessels, which plate was of the same ultra-low attachment quality as the first. […]

thickness of the myocardial ring compared to Controls (micrographs, FIG. 15): substantially thinner than in Controls
average diameter of the myocardial ring (human, 80 μg/mL): 165 μm
SMILES: O=C1CCC(N2C(=O)c3ccccc3C2=O)C(=O)N1 (stereo not drawn) [Thalidomide]
NKX2.5-eGFP-positive cells on the outer layer (micrographs, FIG. 15) (human, 80 μg/mL): absence of any NKX2.5-eGFP-positive cells on the outer layer
